According to paper PMC10415124 (Nucleic Acids Research, 2023):

Legend:
Assay type in all cases: binding
[1] = biological target: T1, MmTRPT1 (tRNA 2′-phosphotransferase 1) (Mus musculus, UniProt Q8K3A2); experiment: crystal structure
T1 sequence (Q8K3A2 1-249): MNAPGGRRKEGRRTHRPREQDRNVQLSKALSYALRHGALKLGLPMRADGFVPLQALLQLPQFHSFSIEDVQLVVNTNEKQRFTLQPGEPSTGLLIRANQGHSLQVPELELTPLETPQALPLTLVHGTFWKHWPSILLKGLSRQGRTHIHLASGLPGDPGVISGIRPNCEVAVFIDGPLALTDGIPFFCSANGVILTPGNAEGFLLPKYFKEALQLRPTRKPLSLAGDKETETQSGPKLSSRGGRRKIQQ

[2] = biological target: T2, HsTRPT1 (tRNA 2′-phosphotransferase 1) (Homo sapiens, UniProt Q86TN4); experiment: crystal structure
T2 sequence (Q86TN4 1-253): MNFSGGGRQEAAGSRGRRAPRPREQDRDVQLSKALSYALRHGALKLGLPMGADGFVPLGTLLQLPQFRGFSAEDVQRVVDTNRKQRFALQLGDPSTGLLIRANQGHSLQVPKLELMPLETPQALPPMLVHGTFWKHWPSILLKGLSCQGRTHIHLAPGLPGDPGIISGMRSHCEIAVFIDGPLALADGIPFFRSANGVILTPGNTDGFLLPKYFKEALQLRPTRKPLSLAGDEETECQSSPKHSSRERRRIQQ

[3] = biological target: T1, MmTRPT1 (tRNA 2′-phosphotransferase 1); experiment: ITC
[4] = biological target: T2, HsTRPT1 (tRNA 2′-phosphotransferase 1); experiment: ITC
[5] = biological target: T3, ScTRPT1 (TPT1, tRNA 2′-phosphotransferase) (Saccharomyces cerevisiae, UniProt Q12272); experiment: ITC and co-crystal structure
T3 sequence (Q12272 1-230): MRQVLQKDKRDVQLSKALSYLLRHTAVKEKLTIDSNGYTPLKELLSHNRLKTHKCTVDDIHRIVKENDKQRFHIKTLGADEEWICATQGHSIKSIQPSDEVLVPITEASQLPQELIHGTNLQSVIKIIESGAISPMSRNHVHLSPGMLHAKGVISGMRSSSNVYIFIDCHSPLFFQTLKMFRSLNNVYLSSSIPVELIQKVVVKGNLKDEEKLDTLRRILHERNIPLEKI

SMILES | crystal structure [1] | crystal structure [2] | Kd [3] [µM] | Kd [4] [µM] | Kd [5] [µM]
Nc1ncnc2c1ncn2[C@@H]1O[C@H](COP(=O)(O)OP(=O)(O)OC[C@H]2O[C@H](OP(=O)(O)O)[C@H](O)[C@@H]2O)[C@@H](O)[C@H]1O [ADPRp] | binds to the HsTRPT1/MmTRPT1 monomer | electron density map clearly showed that one ADPRp molecule | – | – | –
NC(=O)c1ccc[n+]([C@@H]2O[C@H](COP(=O)([O-])OP(=O)(O)OC[C@H]3O[C@@H](n4cnc5c(N)ncnc54)[C@H](O)[C@@H]3O)[C@@H](O)[C@H]2O)c1 [NAD^+] | – | – | 22.3 ± 0.75 | 11.8 ± 0.32 | 23.8 ± 1.88
